Structures can show the parent of a compound that is named as a salt.
What was measured:
rat GPR4 = rat GPR4 (Rattus norvegicus (Rat), UniProt Q4KLH9); assay: Rat GPR4 cAMP assay; type: cell-based; details: read-out: r cAMP IC50
Protocol: (§1) HeLa cells stably expressing human GPR4 were established by transfecting the cells with a construct containing the human GPR4 coding sequence. The cells were grown in Dulbecco's Modified Eagle Medium (DMEM)/HAM's tissue culture medium F12 (HAM's F12) supplemented with 10% fetal calf serum (FCS), 100 u/ml penicillin, 100 μg/ml streptomycin and 400 μg/ml G418 and 10 mM Hepes pH 8.0. pH-induced formation of cAMP was determined using the homogeneous time resolved fluorescence (HTRF) technology as provided by CisBio Inc. The cells were seeded in 384-well plates and cultured for 24 hours at 37° C., 5% CO2 before performing the assay. Medium was removed and 10 μl buffer A (Hepes buffered saline (HBS), 10 mM Hepes, pH 8, 2 mM 3-Isobutyl-1-methylxanthin (IBMX)) was added. For compound testing, buffer A with 2× concentrated compounds was used. Cells were incubated for 15 min at room temperature. 10 μl buffer B (HBS, 30 mM Hepes, specific pH) was added to reach the appropriate final pH for stimulation (see below) and incubation was continued for 15 min at room temperature. […] HBS: 130 mM NaCl, 0.9 mM NaH2 PO4, 5.4 mM KCl, 0.8 mM MgSO4, CaCl2 1.8 mM, 25 mM glucose, 10-30 mM Hepes. Adjustment of HBS buffers:
(§2) Compounds were diluted from fresh stock solutions at 10 mM in DMSO to 2 mM and then used for serial dilutions in DMSO.
(§3) In a similar manner, assays for the mouse (m) and rat (r) GPR4 receptors have been established.

mouse GPR4 = mouse GPR4 (Mus musculus (Mouse), UniProt Q8BUD0); assay: Mouse GPR4 cAMP assay; type: cell-based
Sequence of mouse GPR4 (Q8BUD0 whole entry): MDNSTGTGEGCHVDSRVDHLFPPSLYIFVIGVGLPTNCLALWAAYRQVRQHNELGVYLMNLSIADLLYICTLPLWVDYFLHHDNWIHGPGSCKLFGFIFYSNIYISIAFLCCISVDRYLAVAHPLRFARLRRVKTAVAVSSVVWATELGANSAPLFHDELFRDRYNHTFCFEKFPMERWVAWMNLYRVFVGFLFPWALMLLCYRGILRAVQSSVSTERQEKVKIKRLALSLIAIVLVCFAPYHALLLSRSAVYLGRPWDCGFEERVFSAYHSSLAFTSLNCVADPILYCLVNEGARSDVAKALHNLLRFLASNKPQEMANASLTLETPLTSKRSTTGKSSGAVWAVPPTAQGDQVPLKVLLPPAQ
Protocol: as §1, §2, §3

human GPR4 [1] = molecular target: T1, human GPR4 (Homo sapiens (Human), UniProt P46093); assay: Human GPR4 binding assay ([3H]4 radioligand, membranes of 300.19 cells expressing human GPR4)
T1 sequence (P46093 whole entry): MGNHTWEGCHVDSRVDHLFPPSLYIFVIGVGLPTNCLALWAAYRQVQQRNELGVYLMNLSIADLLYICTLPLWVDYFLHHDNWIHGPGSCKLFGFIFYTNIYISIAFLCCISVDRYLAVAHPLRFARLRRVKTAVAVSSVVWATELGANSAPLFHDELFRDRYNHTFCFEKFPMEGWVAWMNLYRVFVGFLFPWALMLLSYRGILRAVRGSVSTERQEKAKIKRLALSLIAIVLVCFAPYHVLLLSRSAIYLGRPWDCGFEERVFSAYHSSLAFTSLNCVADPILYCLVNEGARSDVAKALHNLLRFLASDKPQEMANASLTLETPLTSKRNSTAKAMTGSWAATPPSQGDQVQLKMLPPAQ
Protocol: a) Human GPR4 Binding Assay
(§4) Cells were grown in T175 flasks to a density of about 1×10^6 cells/mL in growth medium. The cells were harvested by centrifugation (3000 rpm for 30 minutes at 4° C.) and the pellet resuspended in ice cold buffer A (20 mM HEPES pH 7.8, 10 mM EDTA, 100 mM NaCl, 1 tab/40 mL protease inhibitor complete). […] The homogenate was centrifuged at 18000 rpm for 50 min at 4° C. and the membrane protein pellet resuspended in cold buffer A using the Polytron (2×20 seconds). The protein concentration is determined using the Bio Rad Protein Assay and human IgG as standard. The volume of the membrane protein suspension is adjusted to a final concentration of about 2 mg protein/mL. The suspension is then once again homogenized (Polytron) on ice at 25000 rpm for 20 seconds before being aliquoted and stored at −80° C.
(§5) Radio Ligand Binding Assay: Serial dilutions of compounds (stock in 10 mM DMSO) are prepared by first diluting the compounds in DMSO followed by a 1:50 dilution into assay buffer (10 mM HEPES, pH 8.0, 100 mM NaCl, 5 mM MgCl2, 1 mM CaCl2, 0.5% fatty acid-free BSA, 0.05% Tween-20). […] The desired amount of membranes (20 μg/well) is diluted with assay buffer. […] 100 μL of the membrane-suspension is added and the plate stirred for 60 minutes. […] The filter plate is washed 5 times with ice-cold wash buffer, dried and sealed at the bottom. Then 20 μL of Microscint 40 is added into each well and the top of the plate is sealed. Finally the plate is counted for 2 min/well in a TopCount NXT instrument (Packard Instruments). The data are analyzed using the GraphPad Prism™ software.

human GPR4 [2] = molecular target: T1, human GPR4; assay: Human GPR4 binding assay with additional human serum albumin (4% HSA); details: binding assay with 4% HSA
Protocol: as §4, §5
In a similar manner, a binding assay with additional human serum albumin (4% HSA) has been established.

human GPR4 [3] = molecular target: T1, human GPR4; assay: Cell-based assay for human GPR4 activity (pH-induced cAMP formation, HTRF, HeLa cells); details: HeLa cells stably expressing human GPR4, pH-induced cAMP
Protocol: b) Cell-Based Assay for Human GPR4 Activity
as §1, §2

Human H3 = Human H3 (Homo sapiens (Human), UniProt Q9Y5N1); assay: Human H3 binding assay (SPA, [3H]-R-alpha-Methylhistamine); details: 3 nM [3H]-R-alpha-Methylhistamine
Sequence of Human H3 (Q9Y5N1 whole entry): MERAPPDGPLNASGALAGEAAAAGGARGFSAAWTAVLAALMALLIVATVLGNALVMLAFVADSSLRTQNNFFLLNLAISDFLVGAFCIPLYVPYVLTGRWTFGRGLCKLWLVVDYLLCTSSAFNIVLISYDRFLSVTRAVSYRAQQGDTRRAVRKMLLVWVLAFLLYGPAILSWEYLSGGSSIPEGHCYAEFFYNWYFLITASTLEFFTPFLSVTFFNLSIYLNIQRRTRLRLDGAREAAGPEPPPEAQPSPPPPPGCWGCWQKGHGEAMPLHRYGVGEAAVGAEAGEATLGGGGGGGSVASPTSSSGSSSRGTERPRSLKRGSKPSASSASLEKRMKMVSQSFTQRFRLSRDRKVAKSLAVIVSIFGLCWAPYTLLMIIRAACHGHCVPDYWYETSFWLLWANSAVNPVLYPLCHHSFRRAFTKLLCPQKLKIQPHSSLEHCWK
Protocol: c) Human H3 Binding Assay
The Scintillation Proximity Binding Assay (SPA) assay was performed in a final volume of 50 μL per well in a 384-well polystyrene plate.
The final concentration of the radioligand was 3 nM. • 20 μL of a beads (PVT-WGA type A) and membranes mixed suspension in assay buffer, in order to get a final concentration of 10 μg/well of membranes and 200 μg/well of beads. As an example, 1471 μL membranes (Conc.: 5.1 mg/mL) and 1500 μL of bead suspension (Conc.: 100 mg/mL) are diluted to a final volume of 15 mL of assay buffer.
The plates were sealed and shaken at room temperature, then allowed to stand at room temperature for at least 1 hour. The plates were counted using a Perkin Elmer TopCount reader, each well being counted for 1 minute.

CFA-induced hyperalgesia = assay: Established rat hyperalgesia model (CFA); type: in vivo; details: gavage
Protocol: f) Established Rat Hyperalgesia Model
Naïve withdrawal thresholds of both hind paws were determined by using an increasing pressure stimulus placed onto the dorsal surface of each paw using an analgesymeter. Delayed inflammatory pain was then induced by intra-plantar injection of 25 μl of complete Freund's adjuvant (CFA) into one hindpaw with the contralateral paw acting as the control. […] One hour later, paw withdrawal thresholds were re-measured on both the ipsilateral (CFA-injected) and contralateral (uninjected) paw; measurements were repeated at 3 hrs and 6 hrs post dosing. The reversal of hyperalgesia was calculated using the following formula: Reversal (%)=100×(postdose ipsilateral threshold−predose ipsilateral threshold) (naïve ipsilateral threshold−predose ipsilateral threshold).

[4] = radioligand [3H]4 (example 39), membranes of 300.19 cells expressing human GPR4

Sequence of rat GPR4 (Q4KLH9 whole entry): as the sequence (Q8BUD0 whole entry) above, with G8W, H51R, S339T counted along it

| IC50 (rat GPR4) [µM] | IC50 (mouse GPR4) [µM] | IC50 (human GPR4 [3]) [µM] | IC50 (Human H3) [µM] | IC50 (human GPR4 [1]; [4]) [µM] | Structure (SMILES) | further results |
| --- | --- | --- | --- | --- | --- | --- |
| 0.931 | 0.265 | 0.037 | > 30 |  | CCc1nn2c(C)cc(C)nc2c1Cc1ccc(/C=C/C2(O)CCNCC2)cc1 [Example 1, 4-{(E)-2-[4-(2-Ethyl-5,7-dimethyl-pyrazolo[1,5-a]pyrimidin-3-ylmethyl)-phenyl]-vinyl}-piperidin-4-ol] | IC50 (human GPR4 [1]): 0.045 µM; IC50 (human GPR4 [2]): 0.025 µM |
| 0.989 | 0.632 | 0.055 | > 10 |  | CCc1nn2c(C)cc(C)nc2c1Cc1ccc(/C=C/CC2(O)CNC2)cc1 [Example 2, 3-{(E)-3-[4-(2-Ethyl-5,7-dimethyl-pyrazolo[1,5-a]pyrimidin-3-ylmethyl)-phenyl]-allyl}-azetidin-3-ol] | IC50 (human GPR4 [1]): 0.034 µM; IC50 (human GPR4 [2]): 0.052 µM |
| 0.491 | 0.128 | 0.019 |  | 0.024 | CCc1nn2c(C)cc(C)nc2c1Cc1ccc(/C=C/CC2(O)CCN(C[C@@H](O)CO)CC2)cc1 [Example 6, (R)-3-(4-{(E)-3-[4-(2-Ethyl-5,7-dimethyl-pyrazolo[1,5-a]pyrimidin-3-ylmethyl)-phenyl]-allyl}-4-hydroxy-piperidin-1-yl)-propane-1,2-diol] |  |
| 2.79 | 0.499 | 0.046 | > 30 | 0.038 | CCc1nn2c(C)cc(C)nc2c1Cc1ccc(/C=C/CN2CCN(C(=O)CN)CC2)cc1 [Example 11, 2-Amino-1-(4-{(E)-3-[4-(2-ethyl-5,7-dimethyl-pyrazolo[1,5-a]pyrimidin-3-ylmethyl)-phenyl]-allyl}-piperazin-1-yl)-ethanone dihydrochloride] |  |
| 0.181 | 0.233 | 0.027 | > 30 | 0.033 | CCc1nn2c(C)cc(C)nc2c1Cc1ccc(/C=C/CN2CCC(c3nnnn3C)CC2)cc1 [Example 12, 2-Ethyl-5,7-dimethyl-3-(4-{(E)-3-[4-(1-methyl-1H-tetrazol-5-yl)-piperidin-1-yl]-propenyl}-benzyl)-pyrazolo[1,5-a]pyrimidine hydrochloride] |  |
| 1.5 | 0.366 | 0.079 | > 30 |  | CCc1nn2c(C)cc(C)nc2c1Cc1ccc(C(=O)NCC2CCNCC2)cc1 [Example 20, 4-(2-Ethyl-5,7-dimethyl-pyrazolo[1,5-a]pyrimidin-3-ylmethyl)-N-piperidin-4-ylmethyl-benzamide] |  |
| 0.202 | 0.09 |  | > 30 | 0.019 | CCc1nn2c(C)cc(C)nc2c1Cc1ccc(OCC2CCN(C(=O)[C@H]3NCC[C@H]3O)CC2)cc1 [Example 22, {4-[4-(2-Ethyl-5,7-dimethyl-pyrazolo[1,5-a]pyrimidin-3-ylmethyl)-phenoxymethyl]-piperidin-1-yl}-((2S,3R)-3-hydroxy-pyrrolidin-2-yl)-methanone] | IC50 (human GPR4 [2]): 0.012 µM |
| 0.792 | 0.365 | 0.07 | > 30 |  | CCc1nn2c(C)cc(C)nc2c1Cc1ccc(OC[C@H]2CC[C@@H](NC(=O)[C@H]3NCC[C@H]3O)CC2)cc1 [Example 24, (2S,3R)-3-Hydroxy-pyrrolidine-2-carboxylic acid {4-[4-(2-ethyl-5,7-dimethyl-pyrazolo[1,5-a]pyrimidin-3-ylmethyl)-phenoxymethyl]-cyclohexyl}-amide] | IC50 (human GPR4 [2]): 0.063 µM |
| 0.497 | 0.384 | 0.029 | > 30 | 0.026 | CCc1nn2c(C)cc(C)nc2c1Cc1ccc(-n2cc(CN3CCC(N)CC3)cn2)cc1 [Example 30, 1-{1-[4-(2-Ethyl-5,7-dimethyl-pyrazolo[1,5-a]pyrimidin-3-ylmethyl)-phenyl]-1H-pyrazol-4-ylmethyl}-piperidin-4-ylamine] |  |
| 1.33 | 0.255 | 0.061 | > 30 |  | CCc1nn2c(C)cc(C)nc2c1Cc1ccc(-n2cc(CN3CCN[C@@H](CO)C3)cn2)cc1 [Example 32, ((R)-4-{1-[4-(2-Ethyl-5,7-dimethyl-pyrazolo[1,5-a]pyrimidin-3-ylmethyl)-phenyl]-1H-pyrazol-4-ylmethyl}-piperazin-2-yl)-methanol] |  |
| 0.616 | 0.872 | 0.031 | > 10 | 0.038 | CCc1nn2c(C)cc(C)nc2c1Cc1ccc(-n2cc(CN3CCNCC3)nn2)cc1 [Example 33, 2-Ethyl-5,7-dimethyl-3-[4-(4-piperazin-1-ylmethyl-[1,2,3]triazol-1-yl)-benzyl]-pyrazolo[1,5-a]pyrimidine] |  |
|  |  | 0.04 |  |  | CCc1nn2c(C)cc(C)nc2c1Cc1ccc(-c2nnc(C3CCN(C(=O)CNC)CC3)o2)cc1 [Example 37, 1-(4-{5-[4-(2-Ethyl-5,7-dimethyl-pyrazolo[1,5-a]pyrimidin-3-ylmethyl)-phenyl]-[1,3,4]oxadiazol-2-yl}-piperidin-1-yl)-2-methylamino-ethanone] |  |
|  |  |  |  |  | CCc1nc2c(C)cc(C)nc2n1Cc1ccc(/C=C/CN2CCN(C(C)C)CC2)cc1 [Example 40, 2-Ethyl-3-{4-[(E)-3-(4-isopropyl-piperazin-1-yl)-propenyl]-benzyl}-5,7-dimethyl-3H-imidazo[4,5-b]pyridine, reference compound] | % reversal of hyperalgesia (CFA-induced hyperalgesia; 3 mg/kg, 1 h): 23%; % reversal of hyperalgesia (CFA-induced hyperalgesia; 3 mg/kg, 3 h): 11%; % reversal of hyperalgesia (CFA-induced hyperalgesia; 3 mg/kg, 6 h): 0%; % reversal of hyperalgesia (CFA-induced hyperalgesia; 10 mg/kg, 1 h): 48%; % reversal of hyperalgesia (CFA-induced hyperalgesia; 10 mg/kg, 3 h): 40%; % reversal of hyperalgesia (CFA-induced hyperalgesia; 10 mg/kg, 6 h): 0%; % reversal of hyperalgesia (CFA-induced hyperalgesia; 30 mg/kg, 1 h): 55%; % reversal of hyperalgesia (CFA-induced hyperalgesia; 30 mg/kg, 3 h): 45%; % reversal of hyperalgesia (CFA-induced hyperalgesia; 30 mg/kg, 6 h): 8% |
|  |  |  |  |  | O=C(O)Cc1ccccc1Nc1c(Cl)cccc1Cl [diclofenac, reference compound] | % reversal of hyperalgesia (CFA-induced hyperalgesia; 30 mg/kg, 1 h): 58%; % reversal of hyperalgesia (CFA-induced hyperalgesia; 30 mg/kg, 3 h): 60%; % reversal of hyperalgesia (CFA-induced hyperalgesia; 30 mg/kg, 6 h): 30% |

| Structure (SMILES) | IC50 (rat GPR4) [µM] | IC50 (mouse GPR4) [µM] | IC50 (human GPR4 [3]) [µM] | IC50 (Human H3) [µM] | IC50 (human GPR4 [1]; [4]) [µM] | further results |
| --- | --- | --- | --- | --- | --- | --- |
| CCc1nn2c(C)cc(C)nc2c1Cc1ccc(OCC2CCNCC2)cc1 [Example 21, 2-Ethyl-5,7-dimethyl-3-[4-(piperidin-4-ylmethoxy)-benzyl]-pyrazolo[1,5-a]pyrimidine hydrochloride] | 0.489 | 0.096 | 0.012 | 25 |  |  |

Reference: patent US8748435B2, “Pyrazolo pyrimidine derivatives” (Novartis AG, priority 2011, dated 2014)
